# Measurements from patent US11565998B2, “Succinate prodrug, compositions containing the succinate prodrug and uses thereof” (ABLIVA AB, priority 2019, dated 2023).
# Assays:
# [1] = test system: microsomes (Sekisui XenoTech); assay: Succinate release on incubation with microsomes (LCMS); format: in vitro ADME; details: for Compound 1 detected by LCMS: microsomes 0.5 mg/mL, NADPH, malonate
# Description: In brief, a stock of Compound 1 Batch 12 was prepared in 50/50 DMSO/MeCN (200 mM, ×200). This mixture was then diluted 1 in 10 into microsome buffer (20 mM, ×20) consisting of K2HPO4 (Sigma Aldrich, 13.9 g/L, anhydrous), KH2PO4 (Sigma Aldrich, 2.72 g/L, anhydrous), MgCl2.6H2O (Fisher, 1.02 g/L) and EDTA (Sigma Aldrich, 0.375 g/L) dissolved in HPLC grade water. A 200 mM malonic acid (Sigma Aldrich) stock was then prepared in microsome buffer (200 mM, ×20). A 20 mM NADPH stock was also prepared in microsome buffer (20 mM, ×10). A stock of microsomes (Sekisui XenoTech, 0.625 mg/ml) was prepared in a 7 ml vial. Samples were prepared for each timepoint (T=0, 5, 15, 60 mins) as follows: 80 μL microsome stock (0.5 mg/mL final concentration), 5 μL of Compound stock ([…]), 5 μL of malonate stock (10 mM final concentration). The T=0 sample was quenched by adding 100 μL MeOH. Reaction of all timepoints was then initiated with addition of 10 μL NADPH stock (2 mM final concentration). At each timepoint, the reaction was terminated by the addition of 100 μL MeOH. Samples were shaken for 1 min, placed on ice for 10 min, then centrifuged at 3000 rpm for 10 minutes. The supernatant was then analysed by LCMS.
# [2] = In vivo pharmacokinetic studies
# [3] = Aqueous formulations of Compound 1 (water, PBS, saline), concentration by HPLC; format: physicochemical; details: thermodynamic from solid
# [4] = test system: Caco-2 cells; assay: Caco-2 bioavailability in vitro assay (apparent permeability); format: in vitro ADME; details: Caco-2
# Description: (§1) The cell penetrance and potential for oral bioavailability of Compound 1 was tested using a standard caco-2 bioavailability in vitro assay (in brief, confluent Caco-2 cells (L1, A. P., 1992; Grass, G. M; et al., 1992, Volpe, D. A., et al., 2001) in a 24 well Corning Costar Transwell format were provided by In Vitro Technologies Inc. (IVT Inc., Baltimore, Md., USA). The apical chamber contained 0.15 mL Hank's balanced buffer solution (HBBS) pH 7.4, 1% DMSO, 0.1 mM Lucifer Yellow. The basal chamber contained 0.6 mL HBBS pH 7.4, 1% DMSO. Controls and tests were incubated at 37° C. in a humidified incubator, shaken at 130 rpm for 1 h. Lucifer Yellow permeates via the paracellular (between the tight junctions) route only, a high Apparent Permeability (Papp) for Lucifer Yellow indicates cellular damage during assay and all such wells were rejected. Propranolol (good passive permeation with no known transporter effects) & acebutalol (poor passive permeation attenuated by active efflux by P-glycoprotein) were used as reference compounds. Compounds were tested in a uni- and bi-directional format by applying compound to the apical or basal chamber (at 0.01 mM). Compounds in the apical or basal chambers were analysed by HPLC-MS. Results were expressed as Apparent Permeability, Papp, (nm/s), in comparison to other succinate prodrugs, including a number from WO2015/155231.
# [5] = as above; format: in vitro ADME; details: human; Caco-2, apical to basolateral, 0.01 mM, pH 7.4, 1 h, 37° C.
# Description: as §1
# [6] = Carbonate instability (calcium and carbonate sources); format: physicochemical; details: for Percentage of Compound 1 remaining compared to T = 0: 1 mg/ml
# Description: Compound 1 Batch 14 (2-3 mg) was dissolved in HPLC grade water at room temperature (1 mg/ml) containing different sources of calcium and carbonate ions (two concentrations for each source, with the pH recorded) and samples were taken at different time intervals for HPLC analysis.
# Calcium and carbonate sources used in the form of inorganic salts: […]
# [7] = Stability in purified (HPLC grade) or non-purified (tap) water; format: physicochemical; details: room temperature, 6 days
# Description: A side-by-side experiment of the stability of Compound 1 in ‘purified’ HPLC grade water (Fisher Scientific) and ‘non-purified’ tap water was set up. In brief, 1 mg/mL solutions of Compound 1 were generated in ‘purified’ HPLC grade water (Fisher Scientific) and ‘non-purified’ tap water. These were incubated at room temperature for up to 10 days. Concentration and purity of Compound 1 was assessed over time by HPLC in comparison to a standard (AUC of 8.21 RT peak at 230 nm for calculated concentration and AUC of Compound 1 peak vs impurities for purity analysis). Data presented is the average of two samples.
# [8] = Solubility in aqueous formulations in comparison to other succinate prodrugs; format: physicochemical; details: thermodynamic from solid
# Description: Solubility of Compound 1 in aqueous formulations in comparison to other succinate prodrugs was assessed by dissolving solid material in aqueous formulations and measuring the quantity in solution by HPLC (−MS). […] In many cases the max solubility of other prodrugs was lower than 100 uM. See Table 21 for example solubility data in PBS pH7.4 for other succinate prodrugs.
smiles,measurement,setting,value
"COC(=O)CCC(=O)SCCNC(C)=O [Compound 1, Methyl 3-[(2-acetylaminoethylthio)carbonyl]propionate]",succinic acid release,[1]; incubated with microsomes,releases succinic acid over time
same,Compound 1 detected by LCMS,"[1]; batch 12, 0 min",0.934 mM
same,Compound 1 detected by LCMS,"[1]; batch 12, 5 min",0.688 mM
same,Compound 1 detected by LCMS,"[1]; batch 12, 15 min",0.388 mM
same,Compound 1 detected by LCMS,"[1]; batch 12, 60 min",0.080 mM
same,brain penetration,[2],brain penetrant
same,oral bioavailability,[2],high oral bioavailability
same,solubility,"[3]; aqueous buffer, pH 7.4, aqueous media tested, room temperature (20-25° C.), read-out: aqueous solubility",≥ 300 mg/mL
same,solubility,"[3]; water and aqueous systems, water, read-out: solubility",> 500 mg/mL
same,solubility,"[3]; water and aqueous systems, water, read-out: solubility (molar equivalent)",~2100 mM
same,"Apical to Basolateral transfer, rank among prodrugs tested",[4],highest
same,"Papp A→B at 1 h, 0.01 mM",[5],4.12 nm/s
same,Percentage of Compound 1 remaining compared to T = 0,"[6]; (NH4)2CO3 (3.4 mM, pH 8.9), batch 14, day 0",100%
same,Percentage of Compound 1 remaining compared to T = 0,"[6]; (NH4)2CO3 (3.4 mM, pH 8.9), batch 14, day 3",99.6%
same,Percentage of Compound 1 remaining compared to T = 0,"[6]; (NH4)2CO3 (3.4 mM, pH 8.9), batch 14, day 17",85.5%
same,Percentage of Compound 1 remaining compared to T = 0,"[6]; (NH4)2CO3 (3.4 mM, pH 9.3), batch 14, day 0",100%
same,Percentage of Compound 1 remaining compared to T = 0,"[6]; (NH4)2CO3 (3.4 mM, pH 9.3), batch 14, day 3",98.9%
same,Percentage of Compound 1 remaining compared to T = 0,"[6]; (NH4)2CO3 (3.4 mM, pH 9.3), batch 14, day 17",57.5%
same,Percentage of Compound 1 remaining compared to T = 0,"[6]; Ca(NO3)2 (0.34 mM, pH 7.3), batch 14, day 0",100%
same,Percentage of Compound 1 remaining compared to T = 0,"[6]; Ca(NO3)2 (0.34 mM, pH 7.3), batch 14, day 3",101%
same,Percentage of Compound 1 remaining compared to T = 0,"[6]; Ca(NO3)2 (0.34 mM, pH 7.3), batch 14, day 17",97.5%
same,Percentage of Compound 1 remaining compared to T = 0,"[6]; Ca(NO3)2 (3.4 mM, pH 7.2), batch 14, day 0",100%
same,Percentage of Compound 1 remaining compared to T = 0,"[6]; Ca(NO3)2 (3.4 mM, pH 7.2), batch 14, day 3",100%
same,Percentage of Compound 1 remaining compared to T = 0,"[6]; Ca(NO3)2 (3.4 mM, pH 7.2), batch 14, day 17",97.1%
same,Percentage of Compound 1 remaining compared to T = 0,"[6]; CaCO3 (0.34 mM, pH 7.6), batch 14, day 0",100%
same,Percentage of Compound 1 remaining compared to T = 0,"[6]; CaCO3 (0.34 mM, pH 7.6), batch 14, day 3",93.8%
same,Percentage of Compound 1 remaining compared to T = 0,"[6]; CaCO3 (0.34 mM, pH 7.6), batch 14, day 17",50.4%
same,Percentage of Compound 1 remaining compared to T = 0,"[6]; CaCO3 (3.4 mM, pH 7.6), batch 14, day 0",100%
same,Percentage of Compound 1 remaining compared to T = 0,"[6]; CaCO3 (3.4 mM, pH 7.6), batch 14, day 3",93.6%
same,Percentage of Compound 1 remaining compared to T = 0,"[6]; CaCO3 (3.4 mM, pH 7.6), batch 14, day 17",49.5%
same,Percentage of Compound 1 remaining compared to T = 0,"[6]; CaCl2 (0.34 mM, pH 7.4), batch 14, day 0",100%
same,Percentage of Compound 1 remaining compared to T = 0,"[6]; CaCl2 (0.34 mM, pH 7.4), batch 14, day 3",98.4%
same,Percentage of Compound 1 remaining compared to T = 0,"[6]; CaCl2 (0.34 mM, pH 7.4), batch 14, day 17",95.1%
same,Percentage of Compound 1 remaining compared to T = 0,"[6]; CaCl2 (3.4 mM, pH 7.5), batch 14, day 0",100%
same,Percentage of Compound 1 remaining compared to T = 0,"[6]; CaCl2 (3.4 mM, pH 7.5), batch 14, day 3",101%
same,Percentage of Compound 1 remaining compared to T = 0,"[6]; CaCl2 (3.4 mM, pH 7.5), batch 14, day 17",96.7%
same,Percentage of Compound 1 remaining compared to T = 0,"[6]; HPLC water (control, pH 6.5), batch 14, day 0",100%
same,Percentage of Compound 1 remaining compared to T = 0,"[6]; HPLC water (control, pH 6.5), batch 14, day 3",94.3%
same,Percentage of Compound 1 remaining compared to T = 0,"[6]; HPLC water (control, pH 6.5), batch 14, day 17",91.4%
same,degradation in aqueous solution with carbonate ions,[6]; vs calcium chloride / nitrate and control,degrades more rapidly
same,degradation (loss in purity and assay),[7]; (non-purified) tap water,Significant degradation
same,degradation (loss in purity and assay),[7]; (purified) HPLC grade water,not observed
same,solubility,"[8]; 0.9% saline, saline or isotonic",> 500 mg/mL
same,solubility,"[8]; aqueous buffer, PBS (pH 7.4)",190 mg/mL
same,solubility,"[8]; pH 7.4, aqueous buffer, PBS pH7.4",> 0.1 mM
same,solubility,[8]; water,> 350 mg/mL
